Laboratory results as given in PMC13385394, “Cryo-EM Structure of the TRPC1/5 Heteromer Enables Design of Antidepressant and Anxiolytic Drug with Reduced Side Effects” (Nature Communications, 2026).
“Also recorded” adds a separate entry of the source.

Columns and labels:
[1] = molecular target: T1, TRPC5 homomers (Homo sapiens, UniProt Q9UL62); assay: Whole-cell patch-clamp, agonist activation of TRPC5 homomers in HEK293T cells; assay type: cell-based
T1 construct: full length hTRPC5 (TRPC5 wild type (WT)); expressed in transfected cells; host or cells: HEK293T
T1 sequence (Q9UL62 1-973): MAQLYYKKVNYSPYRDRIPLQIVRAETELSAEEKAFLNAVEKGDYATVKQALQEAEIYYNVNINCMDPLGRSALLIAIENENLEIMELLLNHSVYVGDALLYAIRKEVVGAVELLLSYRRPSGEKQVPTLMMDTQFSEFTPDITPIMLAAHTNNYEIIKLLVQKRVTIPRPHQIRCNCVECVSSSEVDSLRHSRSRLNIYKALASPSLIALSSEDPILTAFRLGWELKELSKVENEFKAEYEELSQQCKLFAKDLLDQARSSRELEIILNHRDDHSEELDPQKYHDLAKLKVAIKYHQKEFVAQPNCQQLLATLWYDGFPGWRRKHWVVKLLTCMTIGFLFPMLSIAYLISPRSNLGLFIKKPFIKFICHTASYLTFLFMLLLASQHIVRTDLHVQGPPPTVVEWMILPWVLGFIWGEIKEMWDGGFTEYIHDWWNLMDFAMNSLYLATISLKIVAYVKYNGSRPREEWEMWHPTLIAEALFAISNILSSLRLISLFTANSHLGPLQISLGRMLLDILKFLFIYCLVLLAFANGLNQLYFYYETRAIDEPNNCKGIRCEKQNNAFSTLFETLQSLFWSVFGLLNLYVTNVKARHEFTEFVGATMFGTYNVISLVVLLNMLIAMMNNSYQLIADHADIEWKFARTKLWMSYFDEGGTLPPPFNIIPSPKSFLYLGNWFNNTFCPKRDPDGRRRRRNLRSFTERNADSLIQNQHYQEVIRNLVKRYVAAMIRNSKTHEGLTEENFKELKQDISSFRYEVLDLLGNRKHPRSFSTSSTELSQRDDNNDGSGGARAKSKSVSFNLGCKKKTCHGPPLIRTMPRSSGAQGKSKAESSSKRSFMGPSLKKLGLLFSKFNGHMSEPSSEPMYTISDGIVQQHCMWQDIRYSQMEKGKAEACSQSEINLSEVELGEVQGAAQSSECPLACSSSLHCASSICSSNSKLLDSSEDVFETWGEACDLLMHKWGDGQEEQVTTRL

[2] = molecular target: T2, TRPC1/5 heteromers (Homo sapiens, UniProt P48995+Q9UL62); assay: Whole-cell patch-clamp, agonist activation of TRPC1/5 (TRPC1 and TRPC5 co-transfected) in HEK293T cells; assay type: cell-based
T2 construct: wild type plasmids full-length hTRPC1 (WT) and full-length hTRPC5 (WT); expressed in transfected cells; host or cells: HEK293T
Excerpt: (§1) The full-length hTRPC5 or truncated mTRPC5, and the full-length hTRPC1 constructs was respectively co-transfected in a plasmid ration 1:3 (w/w) into HEK293T cells (from the ATCC). As previously described, a mCherry was inserted into TRPC5 constructs and a GFP was inserted at the C terminus of TRPC1. Therefore, Cells with red and green fluorescence were selected for whole-cell patch recordings (HEKA EPC10 amplifier, […] software (https://www.heka.com/downloads/downloads_main.html#down_patchmaster)). A 1-s ramp protocol from −100 to +100 mV was applied at a frequency of 0.2 Hz. Signals were sampled at 50 kHz and filtered at 2.9 kHz. The pipette solution contained 130 mM CsCl, 1 mM MgCl2, 5.7 mM CaCl2, 10 mM EGTA, and 10 mM Hepes (calculated free Ca^2+, 200 nM), and the pH was titrated to 7.2 using CsOH[40]. The standard bath solution contained 140 mM NaCl, 5 mM KCl, 1 mM MgCl2, 2 mM CaCl2, 10 mM Hepes, and 10 mM D-glucose, and the pH was adjusted to 7.4 with NaOH (1 M). The recording chamber (150 μL) was perfused at a rate of ~2 mL/min. All recordings were performed at room temperature.

[3] = molecular target: T3, hTRPC5 (Homo sapiens, UniProt Q9UL62); assay: Calcium flux assay (Calcium 5 kit, EA 100 nM), hTRPC5 in HEK293T cells; assay type: cell-based; settings: calcium flux screening, 10 μM
T3 construct: Full-length, non-tagged hTRPC1 and hTRPC5 constructs are used for calcium flux assays; expressed in transfected cells; host or cells: HEK293T
T3 sequence (Q9UL62 1-973): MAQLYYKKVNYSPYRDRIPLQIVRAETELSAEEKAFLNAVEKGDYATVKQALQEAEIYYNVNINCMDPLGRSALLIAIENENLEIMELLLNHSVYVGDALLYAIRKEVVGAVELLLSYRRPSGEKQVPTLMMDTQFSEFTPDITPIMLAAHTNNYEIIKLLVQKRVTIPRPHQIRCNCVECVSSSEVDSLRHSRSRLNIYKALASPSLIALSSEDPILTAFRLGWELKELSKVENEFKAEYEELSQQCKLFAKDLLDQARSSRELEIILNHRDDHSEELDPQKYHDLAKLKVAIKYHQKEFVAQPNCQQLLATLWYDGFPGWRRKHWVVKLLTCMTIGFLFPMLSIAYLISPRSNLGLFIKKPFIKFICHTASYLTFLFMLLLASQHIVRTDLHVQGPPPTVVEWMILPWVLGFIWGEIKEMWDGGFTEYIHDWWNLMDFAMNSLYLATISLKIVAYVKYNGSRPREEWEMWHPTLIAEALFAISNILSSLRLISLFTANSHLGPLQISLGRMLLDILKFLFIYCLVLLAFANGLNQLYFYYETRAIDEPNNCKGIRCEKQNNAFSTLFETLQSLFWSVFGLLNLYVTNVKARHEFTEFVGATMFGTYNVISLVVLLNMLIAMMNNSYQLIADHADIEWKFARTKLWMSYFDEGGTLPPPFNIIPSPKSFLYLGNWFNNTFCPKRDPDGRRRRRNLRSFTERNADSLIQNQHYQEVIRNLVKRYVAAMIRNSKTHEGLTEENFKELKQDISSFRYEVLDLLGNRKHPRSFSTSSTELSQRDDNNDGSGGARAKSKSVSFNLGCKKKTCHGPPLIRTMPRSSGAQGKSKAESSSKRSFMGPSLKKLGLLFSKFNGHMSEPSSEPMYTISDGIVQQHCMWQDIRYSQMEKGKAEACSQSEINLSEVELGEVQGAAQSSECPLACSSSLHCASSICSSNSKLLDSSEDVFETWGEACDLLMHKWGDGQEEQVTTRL
Method: Five minutes before measurement, molecules are added to each well at a final concentration of 10 µM under light-sensitive conditions.

[4] = molecular target: T4, TRPC1/5 (Homo sapiens, UniProt P48995+Q9UL62); assay: Calcium flux assay (Calcium 5 kit, EA 100 nM), hTRPC1 + hTRPC5 in HEK293T cells; assay type: cell-based; settings: calcium flux screening, 10 μM
T4 construct: Full-length, non-tagged hTRPC1 and hTRPC5 constructs are used for calcium flux assays; expressed in transfected cells; host or cells: HEK293T
Method: Full-length, non-tagged hTRPC1 and hTRPC5 constructs are used for calcium flux assays. hTRPC5 is transfected alone or co-transfected with hTRPC1 into HEK293T cells (70–80% confluency) using PEI as the transfection reagent.
The culture medium is removed, and 100 µL of loading buffer (Calcium 5 Assay Kit) is added to each well, followed by a 1-h incubation at 37 °C in 5% CO2. Five minutes before measurement, molecules are added to each well at a final concentration of 10 µM under light-sensitive conditions.

[5] = molecular target: T2, TRPC1/5 heteromers; assay: Whole-cell patch-clamp, inhibition of EA-activated TRPC1/5 heteromers; assay type: cell-based; settings: whole-cell patch-clamp; read-out: IC50, TRPC1/C5
Excerpt: as §1

[6] = molecular target: T1, TRPC5 homomers; assay: Whole-cell patch-clamp, inhibition of EA-activated TRPC5 homomers; assay type: cell-based; settings: whole-cell patch-clamp
[7] = system: healthy C57BL/6J mice; settings: mouse, in vivo
Method: The Open-Field test (OFT) was utilized to evaluate the autonomous behavior, exploratory tendencies, and anxiety levels of experimental animals in a new environment. Each mouse was placed at the center of the container and given a 10-min exploration period. Before the test, the animals were acclimated to the experimental setting for 60 min. […] This cleaning procedure aimed to reduce the risk of contamination and prevent any misleading experimental results due to olfactory stimuli. Anxiety levels and exploratory behavior were assessed by measuring the time spent in the central area, the number of entries into the central area, and the total distance traveled by the mice.

[8] = system: diet-induced obesity (DIO) mice; assay: Diet-induced obesity (DIO) model, body weight and food intake; assay type: in vivo, mouse; settings: 11 days once daily, HC-070 and JD03-02 10 mg/kg i.g., Semaglutide 0.123 mg/kg s.c.
Method: A maximum of five mice were housed per cage during the acclimatization period, and three mice per cage during the experimental period. […] The day of administration was defined as day 1 (D1) of the experiment, with a single dose/day administered for 11 consecutive days. Daily observations were made on the animals’ general condition. Body weight was measured on days 1, 3, 5, 7, 9, and 11 post-administrations. Food intake was measured on days 1, 3, 5, 7, and 9 post-administrations by calculating the difference between the amount of food provided and the amount remaining in the cage, divided by the number of animals in the cage to determine the average food intake per mouse. The cumulative food intake during the experiment was calculated by summing the food intake measurements taken on different days.

[9] = system: mCPP-induced anxiety; assay: Open-field test (OFT), mCPP-induced anxiety model; settings: mCPP-induced anxiety-like mice; single dose
[10] = system: CUMS-induced depressive-like behaviors; assay: Forced swim test (FST) in CUMS model; assay type: in vivo, mouse; settings: CUMS mice; 14 days once-daily oral; vs vehicle
Method: (§2) The stressors included food and water deprivation, foot shock, wet bedding, cage tilting, restraint, shaking, and olfactory stimulation. These seven stressors were randomly applied each week to ensure unpredictability. The stress induction was maintained continuously for 28 days. Following model establishment, the tail suspension test (TST) was performed to confirm the successful induction of depressive-like behaviors. Mice that met the criteria were randomly assigned to experimental groups. Chronic Treatment: Mice were treated daily for 14 consecutive days. The SPT was conducted on day 11, and the forced swimming test (FST) was performed on day 14.

[11] = system: CUMS-induced depressive-like behaviors; assay: Sucrose preference test (SPT) in CUMS model; assay type: in vivo, mouse; settings: CUMS mice
Method: as §2, with “groups.” for “groups. Chronic Treatment: Mice were treated daily for 14 consecutive days. The SPT was conducted on day 11, and the forced swimming test (FST) was performed on day 14.”
Acute Treatment: A single dose of the test compound was administered, followed by the sucrose preference test (SPT).
Chronic Treatment: Mice were treated daily for 14 consecutive days. The SPT was conducted on day 11, and the forced swimming test (FST) was performed on day 14.
Mice were acclimated to 1% sucrose solution and plain water for 2 days. On the second day, the positions of the sucrose solution and water were swapped to eliminate positional bias. […] Mice were provided with pre-weighed 1% sucrose solution and plain water. […] Sucrose preference (%) was calculated as Sucrose Preference = A/(A + B)×100.

[12] = molecular target: the molecule itself; assay: cryo-EM structure; TRPC1/5 heteromer co-expressed, purified in tandem on Strep-Tactin and anti-Flag M2 resin and Superose 6 (25 mM Hepes pH 7.5, 150 mM NaCl, 1 mM DTT, LMNG/CHS/GDN); single-particle cryo-EM, 2.84 Å overall

T2 sequence (P48995 whole entry, one chain of several): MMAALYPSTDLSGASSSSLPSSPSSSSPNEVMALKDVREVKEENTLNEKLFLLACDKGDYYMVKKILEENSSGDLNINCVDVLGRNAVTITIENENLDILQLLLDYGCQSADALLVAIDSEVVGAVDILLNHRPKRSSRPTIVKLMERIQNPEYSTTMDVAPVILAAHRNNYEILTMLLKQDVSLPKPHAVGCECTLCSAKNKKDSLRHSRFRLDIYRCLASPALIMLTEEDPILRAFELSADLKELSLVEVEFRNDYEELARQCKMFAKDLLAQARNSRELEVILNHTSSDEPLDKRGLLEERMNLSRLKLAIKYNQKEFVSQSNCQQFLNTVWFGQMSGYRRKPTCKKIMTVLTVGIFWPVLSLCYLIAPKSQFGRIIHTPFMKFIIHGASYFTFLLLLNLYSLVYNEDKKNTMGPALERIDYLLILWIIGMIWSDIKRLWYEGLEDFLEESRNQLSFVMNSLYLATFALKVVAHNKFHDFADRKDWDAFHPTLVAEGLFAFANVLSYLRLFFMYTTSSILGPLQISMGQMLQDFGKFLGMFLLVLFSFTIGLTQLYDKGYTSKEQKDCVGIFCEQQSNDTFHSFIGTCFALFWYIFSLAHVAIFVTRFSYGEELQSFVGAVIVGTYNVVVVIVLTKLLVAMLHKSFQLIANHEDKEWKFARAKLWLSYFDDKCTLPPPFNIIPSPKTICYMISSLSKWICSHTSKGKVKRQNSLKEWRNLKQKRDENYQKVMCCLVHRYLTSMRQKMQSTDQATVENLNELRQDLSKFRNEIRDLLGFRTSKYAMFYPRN
T4 sequence (P48995 whole entry, one chain of several): as above

Molecule: Cn1c(=O)n(CCCO)c(=O)c2c1nc(Oc1ccc(Cl)c(OC(F)(F)F)c1)n2Cc1ccc(Cl)cc1 [AM237]
- activation of TRPC5 homomers (in words) [1]: activates TRPC5 homomers
- activation of TRPC1/5 heteromers (in words) [2]: not TRPC1/5 heteromers

Molecule: Cn1c(=O)n(CCN2CCCC2)c(=O)c2c1nc(Oc1cccc(Cl)c1)n2Cc1ccc(Cl)cc1 [H01]
- inhibitory activity toward TRPC5 homomers (in words) [3]: markedly reduced inhibitory activity
- inhibition of TRPC1/5 heteromers (in words) [4]: moderate inhibition

Molecule: CC(C)NCCn1c(=O)c2c(nc(Oc3cccc(Cl)c3)n2Cc2ccc(Cl)cc2)n(C)c1=O [H02]
- inhibitory activity toward TRPC5 homomers (in words) [3]: markedly reduced inhibitory activity
- inhibition of TRPC1/5 heteromers (in words) [4]: moderate inhibition

Molecule: Cn1c(=O)n(CCNCc2ccccc2)c(=O)c2c1nc(Oc1cccc(Cl)c1)n2Cc1ccc(Cl)cc1 [H03]
- inhibitory activity toward TRPC5 homomers (in words) [3]: restored TRPC5 homomer inhibition

Molecule: CN(C)CCCCCCn1c(=O)c2c(nc(Oc3cccc(Cl)c3)n2Cc2ccc(Cl)cc2)n(C)c1=O [H10]
- IC50 [5]: 2.57 nM
- HillSlope, TRPC5 [6]: 0.3841
- IC50 [6]: 503 nM

Molecule: Cn1c(=O)n(CCCO)c(=O)c2c1nc(Oc1cccc(Cl)c1)n2Cc1ccc(Cl)cc1 [HC-070]
- OFT total distance traveled [7]: increased total distance traveled
- body weight [8]: significantly increased body weight
- food intake [8]: elevated food intake

Molecule: CN1C(=O)CN=C(c2ccccc2)c2cc(Cl)ccc21 [diazepam, reference compound]
- OFT total distance traveled [9]: no significant effect

Molecule: CNCCC(Oc1ccc(C(F)(F)F)cc1)c1ccccc1 (centres unmarked) [fluoxetine, reference compound]
- immobility (FST), repeated dosing [10]: reduced immobility
- sucrose intake (SPT), repeated dosing ([11]; 11 days once-daily oral, vs vehicle): significantly improved sucrose intake
- sucrose preference (SPT), single dose ([11]; single oral dose, JD03-02 30 mg/kg): no immediate effect; also recorded: ineffective

Molecule: Semaglutide [reference compound]
- body weight [8]: effectively reduced both weight and appetite
- food intake [8]: effectively reduced both weight and appetite

B1: C-terminal truncated (210 residues) mouse TRPC5 with triple Flag tag and MBP on its N terminus (domain or fragment, UniProt Q9QX29 1-765, looked up)
chain: MAQLYYKKVNYSPYRDRIPLQIVRAETELSAEEKAFLSAVEKGDYATVKQALQEAEIYYNVNINCMDPLGRSALLIAIENENLEIMELLLNHSVYVGDALLYAIRKEVVGAVELLLSYRKPSGEKQVPTLMMDTQFSEFTPDITPIMLAAHTNNYEIIKLLVQKRVTIPRPHQIRCNCVECVSSSEVDSLRHSRSRLNIYKALASPSLIALSSEDPILTAFRLGWELKELSKVENEFKAEYEELSQQCKLFAKDLLDQARSSRELEIILNHRDDHSEELDPQKYHDLAKLKVAIKYHQKEFVAQPNCQQLLATLWYDGFPGWRRKHWVVKLLTCMTIGFLFPMLSIAYLISPRSNLGLFIKKPFIKFICHTASYLTFLFMLLLASQHIVRTDLHVQGPPPTVVEWMILPWVLGFIWGEIKEMWDGGFTEYIHDWWNLMDFAMNSLYLATISLKIVAYVKYNGSRPREEWEMWHPTLIAEALFAISNILSSLRLISLFTANSHLGPLQISLGRMLLDILKFLFIYCLVLLAFANGLNQLYFYYETRAIDEPNNCKGIRCEKQNNAFSTLFETLQSLFWSVFGLLNLYVTNVKARHEFTEFVGATMFGTYNVISLVVLLNMLIAMMNNSYQLIADHADIEWKFARTKLWMSYFDEGGTLPPPFNIIPSPKSFLYLGNWFNNTFCPKRDPDGRRRRHNLRSFTERHADSLIQNQHYQEVIRNLVKRYVAAMIRNSKTNEGLTEENFKELKQDISSFRYEVLDLLGNRK
notes: TRPC5, mouse, lacking the 210 C-terminal residues; Three copies of this chain stand in the heterotetramer with one TRPC1 subunit; The results call the complex 'human TRPC1/5' although the TRPC5 construct is mouse; also called Cryo-TRPC5; truncated mTRPC5; not shown: triple Flag, N-terminal, kept
- binding result [12]: binds
